Results published in the C3SDB collision cross section collection.
Values joined by “and” are separate entries in the source; they are usually repeats but may differ in a detail not shown here. Equal values may be shown once.

How the values were obtained:
[1] = instrument: DT, stepped-field
[2] = instrument: TW, calibrated with polyalanine
[3] = instrument: DT, stepped-field; remark: listed apart in the source
[4] = instrument: TW, calibrated with phosphatidylcholines (ESI+) and phosphatidylethanolamines (ESI-), doubly charged cardiolipins calibrated with poly-DL-…
[5] = instrument: DT, stepped-field; remark: listed apart in the source
[6] = instrument: DT, single field, calibrated with Agilent tune mix (Agilent)

For CCCCCCCCCCCCCCCC(=O)O[C@H](CO)COP(=O)(O)O [LPA(16:0)], the “collision cross section (N2)” value ([1]; [M-H]-) was 194.5 Å².
In the case of CCCCCCC/C=C\CCCCCCCC(=O)OC[C@@H](O)COP(=O)(O)OC[C@@H](O)CO [LPG(17:1)], the “collision cross section (N2)” value ([1]; [M-H]-) is reported as 213.5 Å².
With CCCCCCCC/C=C\CCCCCCCC(=O)OC[C@@H](O)COP(=O)(O)OC[C@@H](O)CO [LPG(18:1)] the “collision cross section (N2)” value ([1]; [M-H]-) was 217.9 Å² and 216.9 Å².
For CCCCCC/C=C\CCCCCCCC(=O)OC[C@@H](O)COP(=O)(O)O[C@H]1C(O)C(O)C(O)[C@@H](O)C1O (stereo partly specified) [LPI(16:1)], the “collision cross section (N2)” value ([1]; [M-H]-) was 226.1 Å².
For CC(C)C[C@H](N)C(=O)O [Leucine], the “collision cross section (N2)” value ([2]; [M+H]+) was 128 Å².
For OC[C@@H](O)[C@@H](O)[C@H](O)[C@H](O)CO [Mannitol], the “collision cross section (N2)” value ([2]; [M+Na]+) was 137 Å², the “collision cross section (N2)” value ([3]; [M+Li]+) was 144.5 Å² and the “collision cross section (N2)” value ([3]; [M+Na]+) was 140.6 Å².
For OC[C@H]1OC(O)[C@@H](O)[C@@H](O)[C@@H]1O (stereo partly specified) [Mannose], the “collision cross section (N2)” value ([2]; [M+Na]+) was 138 Å².
With C[C@@](O)(CCO)CC(=O)O [Mevalonic acid] the “collision cross section (N2)” value ([2]; [M+Na]+) was 128 Å².
In the case of NC(=O)c1cccnc1 [Niacinamide], the “collision cross section (N2)” value ([2]; [M+H]+) is reported as 118 Å².
In the case of CCCC/C=C\C/C=C\CCCCCCCC(=O)O[C@H](COC(=O)CCCCCCCCCCCC)COP(=O)([O-])OCC[N+](C)(C)C [PC(14:1/16:1)], the “collision cross section (N2)” value ([1]; [M+H]+) is reported as 279.6 Å².
With CCCCCCCCCC/C=C\CCCCCCCCCC(=O)O[C@H](COC(=O)CCCCCCCCCCC)COP(=O)([O-])OCC[N+](C)(C)C [PC(16:0/18:1)] the “collision cross section (N2)” value ([1]; [M+H]+) was 291.4 Å² and 299.1 Å².
In the case of CCCCC/C=C\C/C=C\CCCCCCCCCC(=O)O[C@H](COC(=O)CCCCCCCCCCCCC)COP(=O)([O-])OCC[N+](C)(C)C [PC(16:1/18:1)], the “collision cross section (N2)” value ([1]; [M+H]+) is reported as 295.3 Å² and 295.1 Å².
For CCCC/C=C\CCCCCCCC(=O)OC[C@H](COP(=O)([O-])OCC[N+](C)(C)C)OC(=O)CCCCCCCCCCCCCCCCCCCCC [PC(18:0/18:1)], the “collision cross section (N2)” value ([1]; [M+H]+) was 306.1 Å² and 306 Å².
In the case of CCCCC/C=C\C/C=C\CCCCCCCC(=O)O[C@H](COCCCCCCCCCCCCCCCC)COP(=O)([O-])OCC[N+](C)(C)C [PC(o34:2)], the “collision cross section (N2)” value ([1]; [M+H]+) is reported as 297.2 Å².
With CCCCC/C=C\C/C=C\CCCCCCCC(=O)O[C@H](COCCCCCCCCCCCCCCCCCC)COP(=O)([O-])OCC[N+](C)(C)C [PC(o36:2)] the “collision cross section (N2)” value ([1]; [M+H]+) was 303.1 Å².
With CCCCCC/C=C\CCCCCCCCCC(=O)O[C@H](COC(=O)CCCCCCCCCCCCCCC)COP(=O)(O)OCCN [PE(16:0/18:1)] the “collision cross section (N2)” value ([1]; [M+H]+) was 286.1 Å².
In the case of CCCCCCCC/C=C\CCCCCCCCCC(=O)O[C@H](COC(=O)CCCCCCCCCCCC)COP(=O)(O)OCCN [PE(33:1)], the “collision cross section (N2)” value ([1]; [M-H]-) is reported as 266.7 Å².
With CCCCCCCCCCCCCCCC(=O)OCC(COP(=O)(O)OCCN)OC(=O)CCCCCCCC1CC1CCCCCCCC (stereo unspecified) [PE(35:1)] the “collision cross section (N2)” value ([4]; [M+H]+) was 279.52 Å² and the “collision cross section (N2)” value ([4]; [M-H]-) was 267.54 Å².
For CCCCCCCC/C=C\CCCCCCCCCC(=O)O[C@H](COC(=O)CCCCCCCCCCC)COP(=O)(O)OC[C@@H](O)CO [PG(16:0/16:1)], the “collision cross section (N2)” value ([1]; [M-H]-) was 268.7 Å².
With CCCCCCCCCC/C=C\CCCCCCCCCC(=O)O[C@H](COC(=O)CCCCCCCCCCC)COP(=O)(O)OC[C@@H](O)CO [PG(16:0/18:1)] the “collision cross section (N2)” value ([1]; [M-H]-) was 276.7 Å² and 277.1 Å² and 277 Å².
In the case of CCCCCCCCCCCCCCCC(=O)OCC(COP(=O)(O)OCC(O)CO)OC(=O)CCCCCCCC1CC1CCCC (stereo unspecified) [PG(31:1)], the “collision cross section (N2)” value ([4]; [M+Na]+) is reported as 273.08 Å² and the “collision cross section (N2)” value ([4]; [M-H]-) is reported as 259.19 Å².
With CCCCCC/C=C\CCCCCCCC(=O)OCC(COP(=O)(O)OCC(O)CO)OC(=O)CCCCCCCC1CC1CCCCCC (stereo unspecified) [PG(33:2)] the “collision cross section (N2)” value ([4]; [M+Na]+) was 275.67 Å² and the “collision cross section (N2)” value ([4]; [M-H]-) was 264.54 Å².
With CCCCCCCCCCCCCCCC(=O)OCC(COP(=O)(O)OCC(O)CO)OC(=O)CCCCCCCC1CC1CCCCCCCC (stereo unspecified) [PG(35:1)] the “collision cross section (N2)” value ([4]; [M+Na]+) was 287.26 Å² and the “collision cross section (N2)” value ([4]; [M-H]-) was 273.44 Å².
In the case of CCCCCCCC/C=C\CCCCCCCC(=O)OCC(COP(=O)(O)OCC(O)CO)OC(=O)CCCCCCC/C=C\CCCCCCCC (stereo unspecified) [PG(36:2)], the “collision cross section (N2)” value ([4]; [M+Na]+) is reported as 283.87 Å² and the “collision cross section (N2)” value ([4]; [M-H]-) is reported as 275.05 Å².
With C=C(OP(=O)(O)O)C(=O)O [Phosphoenolpyruvate] the “collision cross section (N2)” value ([2]; [M+Na]+) was 131 Å².
In the case of O=C(O)[C@@H]1CCCN1 [Proline], the “collision cross section (N2)” value ([2]; [M+H]+) is reported as 118 Å².
For C[C@@H](O)[C@H](N)C(=O)O [Threonine], the “collision cross section (N2)” value ([2]; [M+H]+) was 122 Å².
For O=c1ccn([C@@H]2O[C@H](CO)[C@@H](O)[C@H]2O)c(=O)[nH]1 [Uridine], the “collision cross section (N2)” value ([2]; [M+H]+) was 152 Å², the “collision cross section (N2)” value ([5]; [M+Na]+) was 166 Å² and the “collision cross section (N2)” value ([6]; [M+Na]+) was 160.1 Å².
With O=c1[nH]c(=O)c2[nH]cnc2[nH]1 [Xanthine] the “collision cross section (N2)” value ([2]; [M+H]+) was 124 Å², the “collision cross section (N2)” value ([5]; [M+H]+) was 138.11 Å² and the “collision cross section (N2)” value ([5]; [M+Na]+) was 152.65 Å². For the same compound, the “collision cross section (N2)” value ([6]; [M+H]+) was 130.3 Å².
For Nc1ncnc2c1ncn2[C@H]1C[C@H](O)[C@@H](COP(=O)(O)O)O1 [dAMP], the “collision cross section (N2)” value ([2]; [M+H]+) was 164 Å².
In the case of Nc1ccn([C@H]2C[C@H](O)[C@@H](COP(=O)(O)O)O2)c(=O)n1 [dCMP], the “collision cross section (N2)” value ([2]; [M+Na]+) is reported as 161 Å².
In the case of N[C@@H](CCC(=O)N[C@@H](CSSC[C@H](NC(=O)CC[C@H](N)C(=O)O)C(=O)NCC(=O)O)C(=O)NCC(=O)O)C(=O)O [glutathione disulfide], the “collision cross section (N2)” value ([2]; [M+H]+) is reported as 227 Å².
For CCCCCCCCCCCCCCCC(=O)OC(CC(=O)[O-])C[N+](C)(C)C (stereo unspecified) [palmitoylcarnitine], the “collision cross section (N2)” value ([2]; [M+H]+) was 217 Å².
With Cc1ncc(C[n+]2csc(CCO)c2C)c(N)n1 [thiamine] the “collision cross section (N2)” value ([2]; [M]+) was 159 Å².
